The Kinase Knowledgebase extract (Sharma et al. 2016)

Target: EGFR (human) (UniProt P00533)
Conditions: a431

Sequence of EGFR (human) (P00533 whole entry, looked up): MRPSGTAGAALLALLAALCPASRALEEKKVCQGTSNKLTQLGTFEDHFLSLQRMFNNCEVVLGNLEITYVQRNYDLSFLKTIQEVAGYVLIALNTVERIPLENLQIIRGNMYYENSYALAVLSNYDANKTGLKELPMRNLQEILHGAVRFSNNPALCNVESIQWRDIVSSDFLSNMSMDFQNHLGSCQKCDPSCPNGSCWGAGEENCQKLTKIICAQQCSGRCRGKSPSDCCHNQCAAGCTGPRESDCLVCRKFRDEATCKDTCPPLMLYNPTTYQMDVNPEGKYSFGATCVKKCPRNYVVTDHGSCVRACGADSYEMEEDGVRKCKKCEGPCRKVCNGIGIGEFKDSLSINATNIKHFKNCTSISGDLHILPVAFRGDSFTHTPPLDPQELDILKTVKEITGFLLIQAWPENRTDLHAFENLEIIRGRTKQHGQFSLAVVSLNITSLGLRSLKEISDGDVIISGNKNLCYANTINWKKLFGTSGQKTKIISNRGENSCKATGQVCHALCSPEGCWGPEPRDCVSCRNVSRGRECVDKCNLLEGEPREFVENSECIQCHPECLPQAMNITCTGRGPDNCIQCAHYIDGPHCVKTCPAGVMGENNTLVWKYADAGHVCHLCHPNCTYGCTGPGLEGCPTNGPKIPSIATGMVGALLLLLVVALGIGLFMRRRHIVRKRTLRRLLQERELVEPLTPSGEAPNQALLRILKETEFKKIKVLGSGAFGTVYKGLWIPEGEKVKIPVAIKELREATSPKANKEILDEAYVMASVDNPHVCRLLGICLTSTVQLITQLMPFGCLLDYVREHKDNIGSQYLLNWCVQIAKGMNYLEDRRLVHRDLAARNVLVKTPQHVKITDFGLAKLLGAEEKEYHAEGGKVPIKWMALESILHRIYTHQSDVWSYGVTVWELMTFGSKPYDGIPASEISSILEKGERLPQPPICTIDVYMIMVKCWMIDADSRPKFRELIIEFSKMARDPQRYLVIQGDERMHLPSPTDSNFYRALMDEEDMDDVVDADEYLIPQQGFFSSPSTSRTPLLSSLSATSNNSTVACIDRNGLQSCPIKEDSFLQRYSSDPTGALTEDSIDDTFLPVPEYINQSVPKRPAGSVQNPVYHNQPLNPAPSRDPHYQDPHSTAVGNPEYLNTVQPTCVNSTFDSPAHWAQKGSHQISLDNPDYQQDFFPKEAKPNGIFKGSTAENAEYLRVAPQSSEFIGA

Row | SMILES | IC50 [µM]
1 | CN(C)[C@H]1CCN(CCc2ccc3c(c2)sc2ncnc(Nc4ccc(OCc5cccc(F)c5)c(Cl)c4)c23)C1 | ≤ 5
2 | CN(C)CCNC(=O)Cc1ccc2c(c1)sc1ncnc(Nc3ccc4c(cnn4Cc4cccc(F)c4)c3)c12 | ≤ 5
3 | O=C(/C=C/c1ccc2c(c1)sc1ncnc(Nc3ccc(OCc4cccc(F)c4)c(Cl)c3)c12)N1CCOCC1 | ≤ 5
4 | Fc1cccc(COc2ccc(Nc3ncnc4sc5cc(OCCN6CCCC6)ccc5c34)cc2Cl)c1 | ≤ 5
5 | Fc1cccc(COc2ccc(Nc3ncnc4sc5cc(CCN6CCCCC6)ccc5c34)cc2Cl)c1 | ≤ 5
6 | O=C(Cc1ccc2c(c1)sc1ncnc(Nc3ccc4c(cnn4Cc4cccc(F)c4)c3)c12)NC1CN2CCC1CC2 (centres undefined) | ≤ 5
7 | CN1CCN(CCc2ccc3c(c2)sc2ncnc(Nc4ccc(OCc5ccccn5)c(Cl)c4)c23)CC1 | ≤ 5
8 | OCCN(CCO)CCc1ccc2c(c1)sc1ncnc(Nc3ccc(OCc4cccc(F)c4)c(Cl)c3)c12 | ≤ 5
9 | O=C(Cc1ccc2c(c1)sc1ncnc(Nc3ccc(OCc4cccc(F)c4)c(Cl)c3)c12)N1CCOCC1 | ≤ 5
10 | CN(C)[C@H]1CCN(C(=O)Cc2ccc3c(c2)sc2ncnc(Nc4ccc(OCc5cscn5)c(Cl)c4)c23)C1 | ≤ 5
11 | OC[C@H](O)[C@@H](O)c1ccc2c(c1)sc1ncnc(Nc3ccc(OCc4cccc(F)c4)c(Cl)c3)c12 | ≤ 5
12 | OCC(CO)c1ccc2c(c1)sc1ncnc(Nc3ccc(OCc4cccc(F)c4)c(Cl)c3)c12 | ≤ 5
13 | CN1CCN(C(=O)Cc2ccc3c(c2)sc2ncnc(Nc4ccc(OCc5cscn5)c(Cl)c4)c23)CC1 | ≤ 5
14 | OCCc1ccc2c(c1)sc1ncnc(Nc3ccc(OCc4ccccn4)c(Cl)c3)c12 | ≤ 5
15 | COCCN(CCOC)CCc1ccc2c(c1)sc1ncnc(Nc3ccc(OCc4cccc(F)c4)c(Cl)c3)c12 | ≤ 5
16 | CCN1CCN(C(=O)/C=C/c2ccc3c(c2)sc2ncnc(Nc4ccc(OCc5cccc(F)c5)c(Cl)c4)c23)CC1 | ≤ 5
17 | Fc1cccc(COc2ccc(Nc3ncnc4sc5cc(CCN6CCCC6)ccc5c34)cc2Cl)c1 | ≤ 5
18 | OCC(O)c1ccc2c(c1)sc1ncnc(Nc3ccc(OCc4ccccn4)c(Cl)c3)c12 (centres undefined) | ≤ 5
19 | CN(C)CCNC(=O)CCc1ccc2c(c1)sc1ncnc(Nc3ccc(OCc4cccc(F)c4)c(Cl)c3)c12 | ≤ 5
20 | OC[C@H](O)c1ccc2c(c1)sc1ncnc(Nc3ccc4c(cnn4Cc4cccc(F)c4)c3)c12 | ≤ 5
21 | O=C(Cc1ccc2c(c1)sc1ncnc(Nc3ccc(OCc4cccc(F)c4)c(Cl)c3)c12)NCCOCCO | ≤ 5
22 | CN1CCN(CCc2ccc3c(c2)sc2ncnc(Nc4ccc(OCc5cccc(F)c5)c(Cl)c4)c23)CC1 | ≤ 5
23 | Fc1cccc(COc2ccc(Nc3ncnc4sc5cc(CCBr)ccc5c34)cc2Cl)c1 | ≤ 5

Row | SMILES | IC50 [µM]
24 | CN1CCN(C(=O)/C=C/c2ccc3c(c2)sc2ncnc(Nc4ccc(OCc5cccc(F)c5)c(Cl)c4)c23)CC1 | ≤ 5
25 | Fc1cccc(COc2ccc(Nc3ncnc4sc5cc(CCN6CCSCC6)ccc5c34)cc2Cl)c1 | ≤ 5
26 | COC[C@H]1CCCN1CCc1ccc2c(c1)sc1ncnc(Nc3ccc(OCc4cccc(F)c4)c(Cl)c3)c12 | ≤ 5
27 | OCC(O)c1ccc2c(c1)sc1ncnc(Nc3ccc(OCc4cccc(F)c4)c(Cl)c3)c12 (centres undefined) | ≤ 5
28 | NS(=O)(=O)OCCc1ccc2c(c1)sc1ncnc(Nc3ccc(OCc4ccccn4)c(Cl)c3)c12 | ≤ 5
29 | Fc1cccc(COc2ccc(Nc3ncnc4sc5cc(OCCCN6CCOCC6)ccc5c34)cc2Cl)c1 | ≤ 5
30 | OCC(O)C(O)c1ccc2c(c1)sc1ncnc(Nc3ccc(OCc4cccc(F)c4)c(Cl)c3)c12 (centres undefined) | ≤ 5
31 | CN1CCN(C(=O)Cc2ccc3c(c2)sc2ncnc(Nc4ccc5c(cnn5Cc5cccc(F)c5)c4)c23)CC1 | ≤ 5
32 | OC[C@@H](O)[C@H](O)c1ccc2c(c1)sc1ncnc(Nc3ccc(OCc4cccc(F)c4)c(Cl)c3)c12 | ≤ 5
33 | Fc1cccc(Cn2ncc3cc(Nc4ncnc5sc6cc(CCN7CCOCC7)ccc6c45)ccc32)c1 | ≤ 5
34 | O=C(Cc1ccc2c(c1)sc1ncnc(Nc3ccc(OCc4cccc(F)c4)c(Cl)c3)c12)N1CCNCC1 | ≤ 5
35 | CS(=O)(=O)CCNC(=O)CCc1ccc2c(c1)sc1ncnc(Nc3ccc(OCc4cccc(F)c4)c(Cl)c3)c12 | ≤ 5
36 | CS(=O)(=O)CCNC(=O)Cc1ccc2c(c1)sc1ncnc(Nc3ccc4c(cnn4Cc4cccc(F)c4)c3)c12 | ≤ 5
37 | CN(C)[C@H]1CCN(C(=O)CCc2ccc3c(c2)sc2ncnc(Nc4ccc(OCc5cccc(F)c5)c(Cl)c4)c23)C1 | ≤ 5
38 | COCCN1CCN(CCc2ccc3c(c2)sc2ncnc(Nc4ccc(OCc5cccc(F)c5)c(Cl)c4)c23)CC1 | ≤ 5
39 | CN(C)[C@@H]1CCN(C(=O)Cc2ccc3c(c2)sc2ncnc(Nc4ccc(OCc5cscn5)c(Cl)c4)c23)C1 | ≤ 5
40 | COCCNCCc1ccc2c(c1)sc1ncnc(Nc3ccc(OCc4cccc(F)c4)c(Cl)c3)c12 | ≤ 5
41 | OC[C@@H](O)c1ccc2c(c1)sc1ncnc(Nc3ccc4c(cnn4Cc4cccc(F)c4)c3)c12 | ≤ 5
42 | OCC(O)c1ccc2c(c1)sc1ncnc(Nc3ccc4c(cnn4Cc4cccc(F)c4)c3)c12 (centres undefined) | ≤ 5
43 | COC[C@@H]1CCCN1C(=O)Cc1ccc2c(c1)sc1ncnc(Nc3ccc(OCc4ccccn4)c(Cl)c3)c12 | ≤ 5
44 | OC[C@@H](O)COc1ccc2c(c1)sc1ncnc(Nc3ccc(OCc4cccc(F)c4)c(Cl)c3)c12 | ≤ 5
45 | OC[C@@H](O)c1ccc2c(c1)sc1ncnc(Nc3ccc(OCc4cccc(F)c4)c(Cl)c3)c12 | ≤ 5
46 | OCCc1ccc2c(c1)sc1ncnc(Nc3ccc4c(cnn4Cc4ccccn4)c3)c12 | ≤ 5

Row | SMILES | IC50 [µM]
47 | CO[C@H]1CCN(CCc2ccc3c(c2)sc2ncnc(Nc4ccc(OCc5cccc(F)c5)c(Cl)c4)c23)C1 | ≤ 5
48 | COC(=O)/C=C/c1ccc2c(c1)sc1ncnc(Nc3ccc(OCc4cccc(F)c4)c(Cl)c3)c12 | ≤ 5
49 | Fc1cccc(COc2ccc(Nc3ncnc4sc5cc(CCN6CCNCC6)ccc5c34)cc2Cl)c1 | ≤ 5
50 | OCCc1ccc2c(c1)sc1ncnc(Nc3ccc4c(cnn4Cc4cccc(F)c4)c3)c12 | ≤ 5
51 | COCCN(CCOC)C(=O)Cc1ccc2c(c1)sc1ncnc(Nc3ccc(OCc4ccccn4)c(Cl)c3)c12 | ≤ 5
52 | Fc1cccc(Cn2ncc3cc(Nc4ncnc5sc6cc(N7CCNCC7)ccc6c45)ccc32)c1 | ≤ 5
53 | OC[C@H](O)c1ccc2c(c1)sc1ncnc(Nc3ccc(OCc4cccc(F)c4)c(Cl)c3)c12 | ≤ 5
54 | Fc1cccc(COc2ccc(Nc3ncnc4sc5cc(OCCN6CCOCC6)ccc5c34)cc2Cl)c1 | ≤ 5
55 | CN(C)[C@H]1CCN(C(=O)Cc2ccc3c(c2)sc2ncnc(Nc4ccc5c(cnn5Cc5cccc(F)c5)c4)c23)C1 | ≤ 5
56 | O=C(Cc1ccc2c(c1)sc1ncnc(Nc3ccc(OCc4ccccn4)c(Cl)c3)c12)N1CCC[C@@H]1CO | ≤ 5
57 | CS(=O)(=O)CCNCCc1ccc2c(c1)sc1ncnc(Nc3ccc(OCc4ccccn4)c(Cl)c3)c12 | ≤ 5
58 | CCNCCc1ccc2c(c1)sc1ncnc(Nc3ccc(OCc4ccccn4)c(Cl)c3)c12 | ≤ 5
59 | OCCc1ccc2c(c1)sc1ncnc(Nc3ccc(OCc4cccc(F)c4)c(Cl)c3)c12 | ≤ 5
60 | OC[C@H](O)COc1ccc2c(c1)sc1ncnc(Nc3ccc(OCc4cccc(F)c4)c(Cl)c3)c12 | ≤ 5
61 | O=C(Cc1ccc2c(c1)sc1ncnc(Nc3ccc(OCc4cccc(F)c4)c(Cl)c3)c12)NCCN1CCOCC1 | ≤ 5
62 | OC[C@H](O)COc1ccc2c(c1)sc1ncnc(Nc3ccc(OCc4ccccn4)c(Cl)c3)c12 | ≤ 5
63 | CN(C)[C@H]1CCN(C(=O)/C=C/c2ccc3c(c2)sc2ncnc(Nc4ccc(OCc5cccc(F)c5)c(Cl)c4)c23)C1 | ≤ 5
64 | COCCNCCc1ccc2c(c1)sc1ncnc(Nc3ccc(OCc4ccccn4)c(Cl)c3)c12 | ≤ 5
65 | OCCNCCc1ccc2c(c1)sc1ncnc(Nc3ccc(OCc4cccc(F)c4)c(Cl)c3)c12 | ≤ 5
66 | CN1CCN(CCc2ccc3c(c2)sc2ncnc(Nc4ccc5c(cnn5Cc5cccc(F)c5)c4)c23)CC1 | ≤ 5
67 | CN1CCN(c2ccc3c(c2)sc2ncnc(Nc4ccc(OCc5ccccn5)c(Cl)c4)c23)CC1 | ≤ 5
68 | CN1CCN(C(=O)Cc2ccc3c(c2)sc2ncnc(Nc4ccc(OCc5cccc(F)c5)c(Cl)c4)c23)CC1 | ≤ 5
69 | Clc1cc(Nc2ncnc3sc4cc(CCBr)ccc4c23)ccc1OCc1ccccn1 | ≤ 5
